Values quoted from earlier work as cited in patent US20030225101A1 (priority 2002, published 2003).

Tests used:
[1] = oral administration
[2] = test system: isolated corpus cavernosum

absolute bioavailability [1]: about 40%
Structure (SMILES): CCCc1nn(C)c2c(=O)[nH]c(-c3cc(S(=O)(=O)N4CCN(C)CC4)ccc3OCC)nc12 [sildenafil, 1-[4-ethoxy-3-(6,7-dihydro-1-methyl-7-oxo-3-propyl-1H-pyrazolo[4,3-d]pyrimidin-5-yl)phenylsulphonyl]-4-methylpiperazine]
direct relaxant effect on isolated corpus cavernosum [2]: no direct relaxant effect
